For orientation: Ki means the dissociation constant of the complex between target and ligand, obtained from inhibition or displacement. For orientation: IC50 means the concentration needed to halve the response being measured. The term MTD denotes the largest dose that counted as tolerated. Read a low MTD as poorer tolerability.

Entries after “also recorded” stand apart in the source; their conditions may differ. Read-outs that look alike come from different tables or passages of the source. *: point of attachment. Cbz = O=C(OCc1ccccc1)*; CH2F = FC*

Data on eight compounds can be found in paper PMC4106024 (Cancer biology & therapy, 2008).

A short description of data set [1]: Stability test in solid state, spectral purity by HPLC-UV. Format: physicochemical. Conditions: amber glass container, room temperature, n = 2.
A short description of data set [2]: Stability under stressed conditions, spectral purity by HPLC-UV. Conditions: n = 2. The class given is physicochemical.
The next data set concerns the target recombinant human Mcl-1 (Homo sapiens, UniProt Q07820). As to the kind of experiment: Fluorescence polarization-based competitive binding assay. On the technique in general: Fluorescence polarisation rises when a labelled molecule tumbles more slowly, as on binding a larger partner.
The test system of data set [3] is WSU-DLCL2 cells. Conditions: read-out: Estimated IC50; cited from earlier work.
The conditions of data set [4]: in vivo, cited from earlier work.
The test system of a further data set is Bcl-2 expressing B-cells. The settings on record: in vitro; cited from earlier work.
The test system of data set [5] is normal female Balb/c mice. The settings on record: 120 μM/kg (approximately 62 mg/kg), five days daily po × 3 weeks; versus vehicle control or Apogossypol; cited from earlier work.
Data set [6] concerns non-tumor-bearing SCID mice. As to the kind of experiment: Maximal tolerated dose.
The nature of the next data set: Maximal tolerated dose. Conditions: SCID, mouse, in vivo, iv, 40 mg/kg.
In data set [7] the test system is non-tumor-bearing SCID mice. The settings on record: in vivo.
Data set [8] has as its system WSU-DLCL2 cells. As to the kind of experiment: Cell growth inhibition by Trypan Blue cell counting and MTT assay. Format: cell-based, human. Conditions: WSU-DLCL2, 350 nM, Trypan Blue cell counting. A general note: Formazan colour is commonly taken as a measure of viable cells.
For data set [9], the system named is primary cells of chronic lymphocytic leukemia. As to the kind of experiment: Cytotoxic effect on patient-derived primary cells, Trypan Blue cell counting. Conditions: 350 nM or higher, 72 h.
Another data set concerns WSU-DLCL2 xenografts. Briefly: In vivo efficacy test in WSU-DLCL2 SCID mouse xenografts. Further details: species or system ICR-SCID mice. The settings on record: 600 mg/kg (120 mg/kg daily for 5 days), iv or po.
Data set [10] deals with cleavage of caspase-3, caspase-9 and PARP. Briefly: Western blot of apoptosis markers in WSU-DLCL2 cells. The class given is cell-based, human. The settings on record: WSU-DLCL2 whole cell lysate. Background: In western blotting, separated proteins are transferred to a membrane and probed.
Data set [11] has as its system primary cells of mantle cell lymphoma. Briefly: Cytotoxic effect on patient-derived primary cells, Trypan Blue cell counting. The settings on record: 350 nM or higher, 72 h.
Data set [12] relates to protein levels of Bcl-XL or Bim. As to the kind of experiment: Western blot of whole cell lysate for Bcl-XL and Bim. Format: cell-based, human. Conditions: concentrations up to 5 μM.
Another data set relates to PANC-1 cells. Briefly: Cell growth inhibition, MTT assay. The class given is cell-based, human. Conditions: PANC-1, very low level of Bcl-2.
In data set [13] the test system is normal peripheral blood lymphocytes. As to the kind of experiment: Cytotoxic effect on normal lymphocytes, Trypan Blue cell counting. The settings on record: as high as 8 μM, 72 h.
Data set [14] deals with WSU-DLCL2 cells. As to the kind of experiment: Acridine orange/ethidium bromide. Format: cell-based, human. Conditions: 4.0 μm.
In the next data set the test system is WM cells. Briefly: Cell growth inhibition, Trypan blue cell counting. Format: cell-based, human. The settings on record: very low level of Bcl-2.
A further data set has as its system FSCCL cells. Briefly: Cell growth inhibition, Trypan blue cell counting. Format: cell-based, human. Conditions: high level of Bcl-2.
Data set [15] is described as follows: Serum concentration in mice. Format: in vivo. Conditions: iv 80 mg/kg per day for five days.
The test system of a further data set is DLCL2 cells. As to the kind of experiment: Growth inhibition of DLCL2 cells with caspase inhibitors and/or ApoG2. The class given is cell-based, human.

recombinant human Mcl-1, sequence (Q07820 whole entry): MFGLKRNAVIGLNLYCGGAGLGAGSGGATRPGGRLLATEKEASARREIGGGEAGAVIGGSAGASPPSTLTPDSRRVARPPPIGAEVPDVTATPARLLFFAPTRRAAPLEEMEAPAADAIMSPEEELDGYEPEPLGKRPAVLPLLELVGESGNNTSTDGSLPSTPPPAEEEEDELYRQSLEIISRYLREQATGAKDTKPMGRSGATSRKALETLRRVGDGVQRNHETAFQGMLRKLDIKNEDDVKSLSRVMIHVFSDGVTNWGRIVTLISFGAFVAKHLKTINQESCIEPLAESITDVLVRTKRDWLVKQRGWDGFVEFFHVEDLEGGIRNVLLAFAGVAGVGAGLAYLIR

For `Cc1cc2c(C(C)C)c(O)c(O)c(C=O)c2c(O)c1-c1c(C)cc2c(C(C)C)c(O)c(O)c(C=O)c2c1O` (racemic) [Racemic gossypol, gossypol, reference compound], the “Spectral purity in solid state” value came out at 100.0 ± 0% in data set [1] (0 h); 99.9 ± 0.1% in data set [1] (2 weeks); 99.8 ± 0.2% in [1] (3 weeks); 99.4 ± 0.1% in [1] (4 days); 99.8 ± 0.1% in data set [1] (7 days). Further, the “Spectral purity under stressed conditions” value in data set [2] (0.1 N HCI, 5 mm) is reported as 15.8 ± 0.4%; in [2] (0.1 N NaOH, 5 mm) it was 10.4 ± 0.2%; in [2] (30% H2O2, 5 mm), 14.5 ± 0.4%; in data set [2] (Normal light, 2 h), 92.3 ± 0.2%; in [2] (Reference) it was 92.6 ± 0.6%.
As for `Cc1cc2c(C(C)C)c(O)c(O)c(C=O)c2c(O)c1-c1c(C)cc2c(C(C)C)c(O)c(O)c(C=O)c2c1O` [(-)-gossypol, reference compound], the inhibition constant (Ki) at recombinant human Mcl-1 is 170 ± 10 nM. Besides, in the data set on WSU-DLCL2 cells [3], the 50% inhibitory concentration (IC50) is above 1000 nM.
Turning to `Cc1cc2c(C(C)C)c(O)c(O)cc2c(O)c1-c1c(C)cc2c(C(C)C)c(O)c(O)cc2c1O` [Apogossypol], in [4], the “Blood concentrations over time” value is recorded as “superior blood concentrations over time compared to gossypol”. Further, the “medial lethal dose (LD50)” value with Bcl-2 expressing B-cells is 3 to 5 µM.
As for `Cc1cc2c(C(C)C)c(O)c(O)c(C=O)c2c(O)c1-c1c(C)cc2c(C(C)C)c(O)c(O)c(C=O)c2c1O` [gossypol], in data set [5], the “Hepatotoxicity and gastrointestinal toxicity” value is “a great deal of hepatotoxicity and gastrointestinal toxicity”. Further, the “Bioavailability when given orally” value in [4] (po) is listed as 12.2–17.6%. Further, the “medial lethal dose (LD50)” value in the data set on Bcl-2 expressing B-cells was 7.5 to 10 µM. Further, the “Signs of toxicity at MTD” value in data set [6] (120 mg/kg (3 x 40 mg/kg iv)) was “scruffy and rough hair as well as lethargic behavior”. In addition, the “Weight loss at MTD” value in data set [6] (120 mg/kg (3 x 40 mg/kg iv), data not shown) is below 5%. Besides, in [6] (daily iv injection of 40 mg/kg for 4 days or 60 mg/kg for three days), the Lethality result is “lethal”. Besides, the “H & E staining of sections of mouse liver, small and large intestines” value in data set [6] (versus vehicle control, data not shown) is listed as “no abnormality”. This compound came in with an MTD at 3 days in the data set “Maximal tolerated dose” of 120 mg/kg.
For the compound Apogossypolone [ApoG2], the “H & E staining of sections of mouse liver, small and large intestines” value in data set [7] is reported as “no abnormality”. The Growth inhibition entry in the data set on WSU-DLCL2 cells [8] was “approximately 50%”; in the data set with PANC-1 cells, “induces growth inhibition”; with WM cells, “induces growth inhibition”; in the data set with FSCCL cells it was “induces growth inhibition”. Moreover, the Cytotoxic effect entry in [9] and in data set [11] was “significant cytotoxic effect” each time. In addition, the “Growth inhibition of mouse xenografts, single agent” value in the data set with WSU-DLCL2 xenografts was “comparable with that resulted from treatment with CHOP; also recorded: significant growth inhibition”. Moreover, the “Cleavage of caspase-3, caspase-9 and PARP” value in data set [10] was “resulted in the activation of cleavages of caspase-3, caspase-9 and PARP”. Besides, the “Protein levels of Bcl-XL or Bim” value in [12] was “did not affect significantly”. For the same compound, the Ki at recombinant human Mcl-1 (recombinant Mcl-1, n = 3) was determined as 25 ± 10 nM. Besides, the “Spectral purity in solid state” value turned out to be 100.0 ± 0% in [1] (0 h); 100.0 ± 0.1% in data set [1] (2 weeks); 100.0 ± 0.1% in data set [1] (3 weeks); 99.7 ± 0.5% in data set [1] (4 days); 99.9 ± 0.2% in data set [1] (7 days). In addition, the “Cytotoxicity on normal cells” value in data set [13] is recorded as “no major cytotoxicity; also recorded: no toxicity”. Moreover, the “Spectral purity under stressed conditions” value is recorded as 96.5 ± 0.4% in data set [2] (0.1 N HCI, 5 mm); 96.3 ± 0.4% in [2] (0.1 N NaOH, 5 mm); 97.3 ± 0.2% in [2] (30% H2O2, 5 mm); 95.2 ± 0.2% in data set [2] (Normal light, 2 h); 98.0 ± 0.4% in [2] (Reference). Moreover, the “Apoptotic cells (AO/EtBr)” value is 10% with WSU-DLCL2 cells [14] (24 h, control approximately 3%); 17% in the data set with WSU-DLCL2 cells [14] (48 h, control approximately 4%); 32% in the data set with WSU-DLCL2 cells [14] (72 h, control approximately 7%). Further, the “Serum concentration (unbound)” value in data set [15] was 5.0 µM.
Consider Cbz-LEHD-CH2F, for which the “Growth inhibition, caspase inhibitor alone” value in the data set on DLCL2 cells is listed as “no effects of growth inhibition”.
In the case of Cbz-Val-Ala-Asp-CH2F, the “Growth inhibition, caspase inhibitor alone” value in the data set on DLCL2 cells is “no effects of growth inhibition”.
As to Z-DEVD-FMK, the “Growth inhibition, caspase inhibitor alone” value in the data set with DLCL2 cells was “no effects of growth inhibition”.
